The source of these data is patent publication US20080249123A1, “WORTMANNIN-RAPAMYCIN CONJUGATE AND USES THEREOF” (Wyeth, priority 2007, published 2008).

One data set has as its system HCT116. Briefly: In vitro cell culture growth assay (MTS), HCT116. As to conditions: colon line, 3 days after drug treatment. It counts as cell-based, Human. How it is done:
(§1) Human tumor cell lines (Table 3) include prostate lines LNCap and PC3MM2, breast lines MDA468, MCF7, renal line HTB44 (A498), colon line HCT116, and ovarian line OVCAR3. Cells were plated in 96-well culture plates.
(§2) One day following plating, the following conjugates (inhibitors) were added to cells: • Compound A 42,17′-linked wortmannin-adipate-rapamycin conjugate, diethylamine adduct • Compound B 42,17′-linked wortmannin-adipate-rapamycin conjugate. • Compound C 42,17′-linked wortmannin-succinate-rapamycin conjugate, N,N,N′-trimethyl 1,3-propanediamine adduct • Compound D 42,17′-linked wortmannin-adipate-rapamycin conjugate, diallylamine adduct • Compound E 42,17′-linked wortmannin-adipate-rapamycin conjugate, N,N,N′-trimethyl 1,3-propanediamine adduct • Compound F 42,17′-linked wortmannin-suberate-rapamycin conjugate, N,N,N′-trimethyl 1,3-propanediamine adduct.
(§3) Three days after drug treatment, viable cell densities were determined by metabolic conversion (by viable cells) of the MTS dye (3-(4,5-dimethylthiazol-2-yl)-5-(3 carboxymethoxyphenyl)-2-(4-sulfophenyl)-2H-tetrazolium, inner salt), a well established cell proliferation assay. The assays were performed using an assay kit purchased from Promega Corp. (Madison, Wis.) following the protocol supplied with the kit. The MTS assay results were read in a 96-well plate reader by measuring absorbance at 490 nm. The effect of each treatment was calculated as percent of control growth relative to the vehicle-treated cells grown in the same culture plate. The drug concentration that conferred 50% inhibition of growth was determined as IC50 (μg/mL). See, Table 3.

In data set [1] the test system is HT29 colon tumor xenograph. It counts as in vivo. As to conditions: 1× weekly for four rounds. How it is done: The effect of 42,17′-linked wortmannin-suberate-rapamycin conjugate, N,N,N′-trimethyl 1,3-propanediamine adduct, prepared as described in Example 4 was studied in a model of human colon cancer.
The 42,17′-linked wortmannin-suberate-rapamycin conjugate, N,N,N′-trimethyl 1,3-propanediamine adduct (▪, 15 mg/kg), rapamycin (▴, 10 mg/kg), 17-hydroxywortmannin N,N,N′-trimethyl 1,3-propanediamine adduct (▾, 5 mg/kg) and a physical combination of rapamycin (10 mg/kg) and 17-hydroxywortmannin N,N,N′-trimethyl 1,3-propanediamine adduct (5 mg/kg) were dosed 1× weekly for four rounds against a HT29 colon tumor xenograph. Vehicle served as a negative control ([…]).

The subject of another data set is PC3MM2. Briefly: In vitro cell culture growth assay (MTS), PC3MM2. It counts as cell-based, Human. As to conditions: prostate line, 3 days after drug treatment. How it is done:
as §1, §2, §3

In data set [2] the test system is A498 renal cell carcinoma xenograph. Briefly: In vivo anticancer efficacy in HTB44/A498 renal cell carcinoma model. As to conditions: conjugate i.v. 1× weekly 15 mg/kg, 2 rounds; Intron A ip 3× weekly 0.5 mU, 2 weeks. How it is done:
This study utilized a model of renal cancer performed as previously described. See, e.g., Yu K, et al., PWT-458, A Novel Pegylated-17-Hydroxywortmannin, Inhibits Phosphatidylinositol 3-Kinase Signaling and Suppresses Growth of Solid Tumors. Cancer Biol Ther. May 28, 2005; 4(5).
On day 23 the Vehicle group ([…]) was redosed with a combination 42,17′-linked wortmannin-suberate-rapamycin N,N,N′-trimethyl 1,3-propanediamine adduct (30 mg/kg) and the Avastin® drug (200 μg) for five rounds. On day 43, the 42,17′-linked wortmannin-suberate-rapamycin conjugate, N,N,N′-trimethyl 1,3-propanediamine adduct group (30 mg/kg) and the Avastin® drug group (200 μg) were redosed with a combination of 42,17′-linked wortmannin-suberate-rapamycin conjugate, N,N,N′-trimethyl 1,3-propanediamine adduct and the Avasting drug for three rounds.

The subject of the next data set is LNCap. Briefly: In vitro cell culture growth assay (MTS), LNCap. The class given is cell-based, Human. As to conditions: prostate line, 3 days after drug treatment. How it is done:
as §1, §2, §3

The test system of another data set is OVCAR3. Briefly: In vitro cell culture growth assay (MTS), OVCAR3. It counts as cell-based, Human. As to conditions: ovarian line, 3 days after drug treatment. How it is done: as §1, §2, §3
A further data set has as its system MCF7. Briefly: In vitro cell culture growth assay (MTS), MCF7. It counts as cell-based, Human. As to conditions: breast line, 3 days after drug treatment. The method, then:
as §1, §2, §3

Another data set relates to MDA468. Briefly: In vitro cell culture growth assay (MTS), MDA468. The class given is cell-based, Human. As to conditions: breast line, 3 days after drug treatment. How it is done:
as §1, §2, §3

Another data set relates to U87MG Glioma Xenografts. Briefly: Xenograft tumor efficacy study, U87MG glioma in nude mice. The class given is in vivo. How it is done: Female nude mice at 10 weeks of age were inoculated subcutaneously on the flank with 200 μL U87MG (human gliobastoma) tumor cell suspension. U87MG cells were suspended in full growth media and were implanted at 10 million cells per mouse. Mice were staged when tumors reached approximately 200 mm^3 in sizes. Tumor bearing mice at staging (day 0) were randomized into treatment groups (n=10). […]
The growth of tumors was monitored twice a week for the duration of the experiment. Tumor size was measured using sliding vernier calipers, and the tumor mass was calculated using the formula (length×Width^2)/2.
The experimental methods for drug preparation, dosing route, regimen, etc (listed in the Table 4) were similar to the experiments presented in the Figures. The data in Table 4 and the Figures were derived from multiple and completely different experiments. Within Table 4, the data contained separate experiments.

For the next data set, the system named is HTB44 (A498). Nature of the data set: In vitro cell culture growth assay (MTS), HTB44 (A498). The class given is cell-based, Human. As to conditions: renal line, 3 days after drug treatment. How it is done: as §1, §2, §3

Turning to “42,17′-linked wortmannin-suberate-rapamycin conjugate, N,N,N′-trimethyl 1,3-propanediamine adduct [Compound F]”, the “IC50 inhibition of tumor cell growth, HCT116” value with HCT116 is 12.75 µg/mL. For the same substance, the “tolerability (FIG. 5)” value in data set [1] (15 mg/kg, in contrast to physical combination) was “better tolerated”. Further, the “tumor reduction (FIG. 5)” value in [1] (conjugate 15 mg/kg, combination rapamycin 10 mg/kg + 17-hydroxywortmannin adduct 5 mg/kg) was “significant tumor reduction”. For the same substance, the “IC50 inhibition of tumor cell growth, PC2MM2” value in the data set on PC3MM2 is 1.00 µg/mL. Also, in data set [2], the “antitumor activity (FIG. 6)” value is “increased antitumor activity as compared to vehicle and Intron® A reagent alone”. In addition, in the data set with LNCap, the “IC50 inhibition of tumor cell growth, LNCap” value came to 0.06 µg/mL. Further, the “IC50 inhibition of tumor cell growth, OVCAR3” value in the data set with OVCAR3 amounted to 6.48 µg/mL. Also, in the data set with MCF7, the “IC50 inhibition of tumor cell growth, MCF7” value was determined as 0.24 µg/mL. Besides, the “IC50 inhibition of tumor cell growth, MDA468” value in the data set with MDA468 stood at 0.50 µg/mL. In the data set with U87MG Glioma Xenografts (15 mg/kg, 1× weekly for 2 rounds), the “antitumor efficacy versus physical combination (FIG. 3)” value is given as “at least as active as the physical combination”. For the same substance, the “efficacy after a single dose (FIG. 4)” value with U87MG Glioma Xenografts (single dose 30, 45 and 60 mg/kg) was “effective in the intermittent regimen”. Moreover, the “IC50 inhibition of tumor cell growth, HTB44” value in the data set with HTB44 (A498) amounted to 2.10 µg/mL.
